{
  "source": "patent US8263624B2",
  "about": "“Aryl-substituted heterocycles, and use thereof” (Bayer Intellectual Property GmbH, priority 2006, dated 2012)",
  "note": "Structures can show the parent of a compound that is named as a salt.",
  "data": [
    {"target": "T1, human factor Xa (Homo sapiens, UniProt P00742)", "T1 construct": "factor Xa, which is formed from the proenzyme factor X", "T1 sequence (P00742 235-488 limits assumed)": "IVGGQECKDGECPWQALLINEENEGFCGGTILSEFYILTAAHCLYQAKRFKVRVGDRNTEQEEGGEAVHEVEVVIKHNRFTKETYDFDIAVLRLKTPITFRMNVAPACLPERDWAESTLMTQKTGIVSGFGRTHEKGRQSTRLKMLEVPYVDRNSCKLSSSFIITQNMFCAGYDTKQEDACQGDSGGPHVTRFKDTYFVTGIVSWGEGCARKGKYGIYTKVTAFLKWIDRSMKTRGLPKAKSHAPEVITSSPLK", "T1 sequence (P00742 41-179 partner limits assumed)": "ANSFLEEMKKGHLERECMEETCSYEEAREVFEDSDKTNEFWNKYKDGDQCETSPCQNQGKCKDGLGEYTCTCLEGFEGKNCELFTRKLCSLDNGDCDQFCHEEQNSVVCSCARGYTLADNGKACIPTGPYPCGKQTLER", "test": "Determination of the factor Xa inhibition (fluorogenic substrate Boc-Ile-Glu-Gly-Arg-AMC)", "assay_type": "biochemical", "details": "human factor Xa 1.3 nmol/l, 15 min preincubation at 22° C., substrate 5 μmol/l, pH 7.4", "protocol": "• a.1) Determination of the Factor Xa Inhibition\nIn order to determine the factor Xa inhibition of the substances listed above, a biochemical test system is set up, in which the conversion of a factor Xa substrate is used to determine the enzymatic activity of human factor Xa. Here Factor Xa cleaves aminomethylcoumarin, whose fluorescence is measured, from the peptidic substrate. The determinations are carried out in microtitre plates.\nSubstances to be tested, in various concentrations, are dissolved in dimethyl sulphoxide and incubated for 15 min at 22° C. with human factor Xa (1.3 nmol/l dissolved in 50 mmol/l of Tris buffer [C,C,C-tris(hydroxymethyl)aminomethane], 100 mmol/l NaCl, 0.1% BSA [bovine serum albumin], pH 7.4). The substrate (5 μmol/l of Boc-Ile-Glu-Gly-Arg-AMC from Bachem) is then added. After an incubation time of 30 min, the sample is excited at a wavelength of 360 nm, and the emission at 460 nm is measured. The measured emissions of the test batches with test substance are compared to the control batches without test substance (only dimethyl sulphoxide instead of test substance in dimethyl sulphoxide), and IC50 values are calculated from the concentration/activity relationships.", "units": {"IC50": "nM"}, "values": [
      {"smiles": "Cc1cc(-n2cc(CNC(=O)c3ccc(Cl)s3)c(-c3ccccc3)n2)ccc1N1CCOCC1=O", "note": "[Example 2, 5-Chloro-N-({1-[3-methyl-4-(3-oxomorpholin-4-yl)phenyl]-3-phenyl-1H-pyrazol-4-yl}methyl)-thiophene-2-carboxamide]", "IC50": 0.7},
      {"smiles": "O=C(NCc1cn(-c2ccc(N3CCOCC3=O)cc2)nc1-c1ccccc1)c1ccc(Cl)s1", "note": "[Example 1, 5-Chloro-N-({1-[4-(3-oxomorpholin-4-yl)phenyl]-3-phenyl-1H-pyrazol-4-yl}methyl)thiophene-2-carboxamide]", "IC50": 0.7},
      {"smiles": "O=C(NCc1cn(-c2ccc(N3CCOCC3=O)cc2)nc1-c1cccnc1)c1ccc(Cl)s1", "note": "[Example 3, 5-Chloro-N-({1-[4-(3-oxomorpholin-4-yl)phenyl]-3-pyridin-3-yl-1H-pyrazol-4-yl}methyl)thiophene-2-carboxamide hydrochloride]", "IC50": 0.8}
    ]}
  ]
}
